# Laboratory results from PMC11946789, “Two Amino Acid Substitutions Improve the Pharmacological Profile of the Snake Venom Peptide Mambalgin” (Toxins, 2025).
# Entries after “also recorded” stand apart in the source; their conditions may differ. Bridges are numbered along the chain shown (N, C = ends). Where no end group is shown, it is not given here.
# Target: T1, homomeric rat ASIC1b (rASIC1b) (Rattus norvegicus, UniProt P55926)
# T1 construct: expressed in transfected cells; host or cells: Xenopus laevis oocytes, mRNA microinjected
# T1 sequence (P55926 1-559 isoform P55926-3): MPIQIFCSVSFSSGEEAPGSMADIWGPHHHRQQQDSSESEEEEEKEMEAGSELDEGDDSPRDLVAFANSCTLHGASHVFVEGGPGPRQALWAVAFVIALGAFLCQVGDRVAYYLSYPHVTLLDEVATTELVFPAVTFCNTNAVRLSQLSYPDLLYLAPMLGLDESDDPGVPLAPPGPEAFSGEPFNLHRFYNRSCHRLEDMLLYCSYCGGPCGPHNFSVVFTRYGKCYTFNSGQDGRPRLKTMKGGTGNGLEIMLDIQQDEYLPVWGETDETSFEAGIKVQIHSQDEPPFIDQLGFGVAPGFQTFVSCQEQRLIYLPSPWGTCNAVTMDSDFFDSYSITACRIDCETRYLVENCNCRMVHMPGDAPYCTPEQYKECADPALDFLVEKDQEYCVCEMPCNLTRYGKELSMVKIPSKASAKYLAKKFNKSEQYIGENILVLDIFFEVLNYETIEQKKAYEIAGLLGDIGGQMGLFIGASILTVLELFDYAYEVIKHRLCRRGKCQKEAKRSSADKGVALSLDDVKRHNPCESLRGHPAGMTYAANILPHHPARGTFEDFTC
# Test: TEVC recordings, homomeric rASIC1b
# Assay type: cell-based
# From the text: Figure 4 The inhibitory effect of Mamb-AL on other ASIC1-containing channels exceeds that of Mamb. (A,C) Representative current traces showing the effects of various concentrations of Mamb (left panels) and Mamb-AL (right panels) on homomeric rat ASIC1b (rASIC1b) (A) and heteromeric rat ASIC1a/3 (rASIC1a/3) channels (C). Currents were evoked by a pH 5.5 stimulus following a conditioning pH of 7.4, with peptides applied for 30 s prior to the pH stimulus. (B) Dose–response curves for the inhibitory effects of Mamb and Mamb-AL on rASIC1b. Each data point represents measurements from 5 to 7 cells. (D) Bar graph quantifying the inhibitory effects of Mamb and Mamb-AL on rASIC1a/3, shown as a percentage of the corresponding control currents (n = 5). Data are presented as mean ± SEM; * p< 0.05, unpaired t-test. […] Data are shown as mean ± SEM; ns indicates no significant difference vs. control (dotted horizontal line), paired t-test. […]
# Whole-cell ASIC currents were measured using the two-electrode voltage clamp (TEVC) method with a GeneClamp 500 amplifier (Axon Instruments, Union City, NJ, USA). […]
# Electrophysiological and behavioral data were analyzed using OriginPro 8.6.0 (OriginLab, Washington, DC, USA). […] Statistical significance between the Mamb and Mamb-AL groups was determined using an unpaired t-test. […]
sequence,measurement,setting,value
"LKCYQHGKVVTCHRDAKFCYHNTGLPFRNLKLILQGCSSSCSETENNKCCSTDRCNK (disulfide 3-19, 12-37, 41-49, 50-55 (inferred)) [Mamb-AL]",greater potency / inhibition of rASIC1b,compared with Mamb,five-fold; also recorded: five times greater potency
same,IC50,"pH stimulus 5.5, conditioning pH 7.4, peptide applied 30 s before stimulus, Xenopus laevis oocytes, mean ± SEM, 5 to 7 cells",22 ± 1 nM
